Holding throughout (type): functional
For assay [1], the system named is Acinetobacter radioresistens. In words: Antimicrobial activity against plasmid encoded beta-lactamase OXA-58 deficient Acinetobacter radioresistens by CLSI method.
Assay [2] relates to Acinetobacter radioresistens. In words: Antimicrobial activity against Acinetobacter radioresistens 251-39C expressing beta-lactamase OXA-133 by CLSI method.
Assay [3] has as its system Acinetobacter radioresistens. Put plainly: Antimicrobial activity against plasmid encoded beta-lactamase OXA-58 deficient Acinetobacter radioresistens by CLSI method in presence of beta-lactamase inhibitor clavulanate.
The test system of assay [4] is Acinetobacter radioresistens. Put plainly: Antimicrobial activity against Acinetobacter radioresistens 251-39C expressing beta-lactamase OXA-133 by CLSI method in presence of beta-lactamase inhibitor clavulanate.
The subject of assay [5] is Acinetobacter radioresistens. Put plainly: Antimicrobial activity against plasmid encoded beta-lactamase OXA-58 deficient Acinetobacter radioresistens by CLSI method in presence of beta-lactamase inhibitor Sulbactam.
Assay [6] has as its system Acinetobacter radioresistens. Put plainly: Antimicrobial activity against Acinetobacter radioresistens 251-39C expressing beta-lactamase OXA-133 by CLSI method in presence of beta-lactamase inhibitor Sulbactam.
For assay [7], the system named is Acinetobacter radioresistens. Put plainly: Antimicrobial activity against plasmid encoded beta-lactamase OXA-58 deficient Acinetobacter radioresistens by CLSI method in presence of beta-lactamase inhibitor Tazobactam.
For assay [8], the system named is Acinetobacter radioresistens. In words: Antimicrobial activity against Acinetobacter radioresistens 251-39C expressing beta-lactamase OXA-133 by CLSI method in presence of beta-lactamase inhibitor Tazobactam.

Data on 14 molecules can be found in ChEMBL document CHEMBL1629591, “Codetection of blaOXA-23-like gene (blaOXA-133) and blaOXA-58 in Acinetobacter radioresistens: report from the SENTRY antimicrobial surveillance program” (2009).

Converted amounts (≈) assume the structure as drawn.

For `C[C@@H](O)[C@H]1C(=O)N2C(C(=O)O)=C(S[C@@H]3CN[C@H](C(=O)Nc4cccc(C(=O)O)c4)C3)[C@H](C)[C@H]12`, the MIC – broadly, the lowest concentration found to suppress growth – in assay [1] is 1 µg/mL (≈ 2.1 µM); in assay [2], 4 µg/mL (≈ 8.41 µM).
For `NCC[C@H](O)C(=O)N[C@@H]1C[C@H](N)[C@@H](O[C@H]2O[C@H](CN)[C@@H](O)[C@H](O)[C@H]2O)[C@H](O)[C@H]1O[C@H]1O[C@H](CO)[C@@H](O)[C@H](N)[C@H]1O` [AMIKACIN], the MIC in assay [1] and in assay [2] was 0.5 µg/mL (≈ 0.854 µM) each time.
As to `CC1(C)S[C@@H]2[C@H](NC(=O)[C@H](N)c3ccc(O)cc3)C(=O)N2[C@H]1C(=O)O` [AMOXICILLIN], the results for the minimal inhibitory concentration (MIC) in assay [3] and in assay [4] were 2 µg/mL and 32 µg/mL, respectively.
In the case of `CC1(C)S[C@@H]2[C@H](NC(=O)[C@H](N)c3ccccc3)C(=O)N2[C@H]1C(=O)O` [AMPICILLIN], the MIC in assay [5] and in assay [6] was 1 µg/mL each time.
Turning to `CO[C@@]1(NC(=O)Cc2cccs2)C(=O)N2C(C(=O)O)=C(COC(N)=O)CS[C@@H]21` [CEFOXITIN], the minimum inhibitory concentration (MIC) in assay [1] and in assay [2] was 8 µg/mL (≈ 18.7 µM) in each case.
For the molecule `CC(C)(O/N=C(\C(=O)N[C@@H]1C(=O)N2C(C(=O)[O-])=C(C[n+]3ccccc3)CS[C@H]12)c1csc(N)n1)C(=O)O` [CEFTAZIDIME], the minimum inhibitory concentration (MIC) in assay [1] and in assay [2] was 0.5 µg/mL (≈ 0.915 µM) in each case.
With `CO/N=C(\C(=O)N[C@@H]1C(=O)N2C(C(=O)O)=C(CSc3nc(=O)c(O)nn3C)CS[C@H]12)c1csc(N)n1` [CEFTRIAXONE], the MIC in assay [1] amounted to 2 µg/mL (≈ 3.61 µM); in assay [2], 4 µg/mL (≈ 7.21 µM).
The matching figures for `C[C@@H](O)[C@H]1C(=O)N2C(C(=O)O)=C(SCCNC=N)C[C@H]12` [IMIPENEM ANHYDROUS]: 0.25 µg/mL (≈ 0.835 µM) and 8 µg/mL (≈ 26.7 µM).
For `C[C@@H](O)[C@H]1C(=O)N2C(C(=O)O)=C(S[C@@H]3CN[C@H](C(=O)N(C)C)C3)[C@H](C)[C@H]12` [MEROPENEM], the MIC was 0.25 µg/mL (≈ 0.652 µM) in assay [1] and 1 µg/mL (≈ 2.61 µM) in assay [2].
Consider `CCN1CCN(C(=O)N[C@@H](C(=O)N[C@@H]2C(=O)N3[C@@H]2SC(C)(C)[C@@H]3C(=O)O)c2ccccc2)C(=O)C1=O` [PIPERACILLIN], for which the results for the minimal inhibitory concentration (MIC) in assay [7] and in assay [8] were 1 µg/mL and 64 µg/mL, respectively.
Take `CN(C)[C@@H]1C(O)=C(C(N)=O)C(=O)[C@@]2(O)C(O)=C3C(=O)c4c(O)cccc4[C@@](C)(O)[C@H]3C[C@@H]12` [TETRACYCLINE]: the MIC in assay [1] and in assay [2] was at most 2 µg/mL each time.
`CC1(C)S[C@@H]2[C@H](NC(=O)[C@H](C(=O)O)c3ccsc3)C(=O)N2[C@H]1C(=O)O` [TICARCILLIN]: the minimal inhibitory concentration (MIC) is 4 µg/mL in assay [3] and over 256 µg/mL in assay [4].
As for `NC[C@H]1O[C@H](O[C@H]2[C@H](O)[C@@H](O[C@H]3O[C@H](CO)[C@@H](O)[C@H](N)[C@H]3O)[C@H](N)C[C@@H]2N)[C@H](N)C[C@@H]1O` [TOBRAMYCIN], the minimum inhibitory concentration (MIC) in assay [1] and in assay [2] was 2 µg/mL (≈ 4.28 µM) throughout.
On to POLYMYXIN B, for which the minimum inhibitory concentration (MIC) in assay [1] and in assay [2] was under 0.5 µg/mL in each case.
